Assay results taken from patent EP0535155B1, “LIBRARIES OF MODIFIED PEPTIDES WITH PROTEASE RESISTANCE” (CHIRON CORPORATION, priority 1990, dated 2002).
Where a SMILES comes first, the peptide text is derived from it. The star is where a group is joined. Fmoc = O=C(OCC1c2ccccc2-c2ccccc21)*

Columns and labels:
chymotrypsin [1] = test system: chymotrypsin
Method: (§1) Each substrate was dissolved to 0.5 mg/mL in 10% DMSO, 100 mM Tris, 100 mM CaCl2, pH 8.0. Either trypsin or chymotrypsin was dissolved to 1 mg/mL in 0.001M HCI. At t=0, 10λ of enzyme or 0.001M HCI was added to 200λ of either the peptoid or peptide solution and incubated at 37°C. At the appropriate times, 50λ was removed and quenched with 50λ of 20% HOAc and assayed by HPLC on a C4 column with detection at 280 nm. The data below is given in percent area remaining on parent peak.

trypsin [2] = assay: Proteolysis of peptoids and peptides by trypsin (RP-HPLC); conditions: trypsin (isolated protease) in Tris buffer, pH 8
Method: as §1

trypsin [3] = test system: trypsin
Method: as §1

physchem = conditions: buffer or solvent, pH 8
Method: as §1

chymotrypsin [4] = assay: Proteolysis of peptoids and peptides by chymotrypsin (RP-HPLC); conditions: chymotrypsin (isolated protease) in Tris buffer, pH 8
Method: as §1

chymotrypsin [5] = assay: in vitro; conditions: isolated enzyme chymotrypsin, pH 8
Method: as §1

Question: Which results are given for `CC(C)C[C@H](NC(=O)OCC1c2ccccc2-c2ccccc21)C(=O)N[C@@H](CC(=O)O)C(=O)N[C@@H](Cc1ccccc1)C(=O)N[C@@H](CO)C(=O)N[C@@H](CCCCN)C(=O)NCC(=O)O` [PEPTIDE, FMOC-LDFSKG-OH] (Fmoc-LDFSKG-OH)?
Answer: cleavage at the second site (chymotrypsin [1]): not cbmpletely cleaved; remaining at 5 min, 0.476 mg/mL (trypsin [2]): 0%; remaining at 10 min, 0.476 mg/mL (trypsin [2]): 0%; remaining at 3 h, 0.476 mg/mL (trypsin [2]): 0%; time in which cleavage was complete (trypsin [3]): ≤ 5 min; remaining at 5 min, 0.476 mg/mL (physchem): 100%; remaining at 10 min, 0.476 mg/mL (physchem): 100%; remaining at 3 h, 0.476 mg/mL (physchem): < 100%; remaining at 5 min, 0.476 mg/mL (chymotrypsin [4]): 75%; remaining at 10 min, 0.476 mg/mL (chymotrypsin [4]): 41%; metabolised at 10 min, 0.476 mg/mL (chymotrypsin [5]): ~60%; remaining at 3 h, 0.476 mg/mL (chymotrypsin [5]): 0%
